From patent publication US12595247B2, “Substituted pyrazolo piperidine carboxylic acids” (Bayer Aktiengesellschaft, priority 2020, dated 2026)
Where a name gives a salt, the structure may show the parent alone.

Experiments:
[1] = target: T1, recombinant guanylate cyclase reporter cell line (Rattus norvegicus, UniProt P20595); assay: Effect on a recombinant guanylate cyclase reporter cell line; format: cell-based; settings: for EC50: read-out: EC50 (half maximal effective concentration)
T1 construct: expressed in transfected cells; host or cells: recombinant reporter cell line
T1 sequence (P20595 1-619): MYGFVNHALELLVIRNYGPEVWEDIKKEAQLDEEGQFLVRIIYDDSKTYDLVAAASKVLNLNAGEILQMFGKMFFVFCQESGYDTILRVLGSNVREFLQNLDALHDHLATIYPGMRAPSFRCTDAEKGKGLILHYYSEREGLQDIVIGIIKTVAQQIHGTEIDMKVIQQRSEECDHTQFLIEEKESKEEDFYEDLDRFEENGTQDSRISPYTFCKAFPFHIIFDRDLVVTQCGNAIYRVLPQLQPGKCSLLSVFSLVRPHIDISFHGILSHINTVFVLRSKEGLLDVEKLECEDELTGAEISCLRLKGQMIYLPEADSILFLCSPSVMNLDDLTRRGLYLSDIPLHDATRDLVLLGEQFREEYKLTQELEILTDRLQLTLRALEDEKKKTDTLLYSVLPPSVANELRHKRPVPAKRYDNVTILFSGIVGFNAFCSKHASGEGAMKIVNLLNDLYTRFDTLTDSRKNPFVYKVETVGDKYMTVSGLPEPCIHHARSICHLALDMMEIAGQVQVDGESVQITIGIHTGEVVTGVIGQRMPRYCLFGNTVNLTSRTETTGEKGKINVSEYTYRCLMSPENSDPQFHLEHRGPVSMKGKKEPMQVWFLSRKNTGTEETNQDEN
T1 sequence (P19686 1-690 partner): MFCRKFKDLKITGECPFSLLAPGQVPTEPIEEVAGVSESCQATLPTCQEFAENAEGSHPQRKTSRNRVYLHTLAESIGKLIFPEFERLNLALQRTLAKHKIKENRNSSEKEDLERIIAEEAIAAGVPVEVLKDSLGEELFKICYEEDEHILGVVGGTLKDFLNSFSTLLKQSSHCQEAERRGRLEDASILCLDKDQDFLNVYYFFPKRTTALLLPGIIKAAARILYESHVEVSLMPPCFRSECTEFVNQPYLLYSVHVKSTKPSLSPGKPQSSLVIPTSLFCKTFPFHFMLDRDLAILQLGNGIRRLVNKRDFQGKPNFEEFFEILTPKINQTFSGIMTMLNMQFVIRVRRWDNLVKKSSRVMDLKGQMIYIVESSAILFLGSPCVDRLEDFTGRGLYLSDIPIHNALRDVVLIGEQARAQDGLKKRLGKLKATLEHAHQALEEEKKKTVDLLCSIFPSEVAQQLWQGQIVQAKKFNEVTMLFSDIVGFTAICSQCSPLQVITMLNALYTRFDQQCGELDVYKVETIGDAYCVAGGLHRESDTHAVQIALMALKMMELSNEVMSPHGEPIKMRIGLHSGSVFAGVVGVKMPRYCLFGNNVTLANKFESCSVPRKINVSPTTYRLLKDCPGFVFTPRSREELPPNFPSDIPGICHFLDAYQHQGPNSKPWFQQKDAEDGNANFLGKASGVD
Experimental: B-1. Effect on a Recombinant Guanylate Cyclase Reporter Cell Line
The cellular activity of the compounds according to the invention was determined using a recombinant guanylate cyclase reporter cell line, as described in F. Wunder et al., Anal. Biochem. 339, 104-112 (2005).

[2] = Pharmacokinetic parameters following intravenous and oral administration in rats; format: in vivo, male Wistar rats
Source text: (§1) • Klaus Witte, Kai Hu, Johanna Swiatek, Claudia Müssig, Georg Ertl and Björn Lemmer: Experimental heart failure in rats: effects on cardiovascular circadian rhythms and on myocardial β-adrenergic signaling. Cardiovasc Res 47 (2): […], 2000; Kozo Okamoto: Spontaneous hypertension in rats. Int Rev Exp Pathol 7: 227-270, 1969; Maarten van den Buuse: Circadian Rhythms of Blood Pressure, Heart Rate, and Locomotor Activity in Spontaneously Hypertensive Rats as Measured With Radio-Telemetry. Physiology & Behavior 55(4): 783-787, 1994. B-5. Determination of Pharmacokinetic Parameters Following Intravenous and Oral Administration
(§2) The pharmacokinetic parameters of the compounds according to the invention were determined in male Wistar rats and/or in female beagles and/or in cynomolgus monkeys and/or in male CD-1 mice. Intravenous administration in the case of mice and rats was carried out by means of a species-specific plasma/DMSO formulation, and in the case of dogs and monkeys by means of a water/PEG400/ethanol formulation. In all species, oral administration of the dissolved substance was performed via gavage, based on a water/PEG400/ethanol formulation.
(§3) An internal standard (which may also be a chemically unrelated substance) was added to the samples of the compounds of the invention, calibration samples and qualifiers, and there followed protein precipitation by means of acetonitrile in excess. Addition of a buffer solution matched to the LC conditions, and subsequent vortexing, was followed by centrifugation at 1000 g. The supernatant was analysed by LC-MS/MS using C18 reversed-phase columns and variable mobile phase mixtures. The substances were quantified via the peak heights or areas from extracted ion chromatograms of specific selected ion monitoring experiments.
(§4) The plasma concentration/time plots determined were used to calculate the pharmacokinetic parameters such as AUC, Cmax, t1/2 (terminal half-life), F (bioavailability), MRT (mean residence time) and CL (clearance), by means of a validated pharmacokinetic calculation program.
(§5) Since the substance quantification was performed in plasma, it was necessary to determine the blood/plasma distribution of the substance in order to be able to adjust the pharmacokinetic parameters correspondingly.
(§6) For this purpose, a defined amount of substance was incubated in K3 EDTA whole blood of the species in question in a rocking roller mixer for 20 min. After centrifugation at 1000 g, the plasma concentration was measured (by means of LC-MS/MS; see above) and determined by calculating the ratio of the Cblood/Cplasma value.

[3] = Pharmacokinetic parameters following intravenous and oral administration in dogs; format: in vivo, female beagles; settings: for bioavailability: female, beagle, dog, plasma, read-out: F (bioavailability)
Source text: as §1, §2, §3, §4, §5, §6

[4] = rats, intravenous administration
[5] = rats, oral administration (p.o.)

Row | MEC (minimum effective concentration) [1] | AUCnorm [2, 4] | AUCnorm [2, 5] | F (bioavailability) [2, 5] | EC50 [1] | lower plasma clearance (CLplasma) in comparison to example 174 in WO 2012/058132 ([2]; in rats as well as in dogs) | bioavailability ([3]; oral administration (p.o.)) | AUCnorm ([3]; intravenous administration) | AUCnorm ([3]; oral administration (p.o.)) | bioavailability ([2]; male, Wistar, rat, plasma, po, rats, oral administration (p.o.), read-out: F (bioavailability)) | SMILES
1 | 2.3 nM | 1.77 kg·h/L | 0.57 kg·h/L | 31.4% |  |  |  |  |  |  | CC(C)CN1CCN(c2ccc(-c3ccc(Cl)cc3N3CCCC(n4ncc(C(=O)O)c4C(F)F)C3)cc2)CC1 (single isomer, unassigned; enantiomer 1) [Example 1, 1-[1-{4-Chloro-4′-[4-(2-methylpropyl)piperazin-1-yl][1,1′-biphenyl]-2-yl}piperidin-3-yl]-5-(difluoromethyl)-1H-pyrazole-4-carboxylic acid hydrochloride (Enantiomer 1)]
2 | 1.0 nM | 7.08 kg·h/L | 3.77 kg·h/L | 53.3% | 8.6 nM | up to 10 times | 82.8% | 81.7 kg·h/L | 67.7 kg·h/L |  | CC(C)CN1CCN(c2ccc(-c3ccc(Cl)cc3N3CCCC(n4ncc(C(=O)O)c4C(F)F)C3)cc2)CC1 (single isomer, unassigned; enantiomer 2) [Example 2, 1-[1-{4-Chloro-4′-[4-(2-methylpropyl)piperazin-1-yl][1,1′-biphenyl]-2-yl}piperidin-3-yl]-5-(difluoromethyl)-1H-pyrazole-4-carboxylic acid (Enantiomer 2)]
3 | 0.6 nM |  |  |  | 2.7 nM |  |  |  |  |  | CC(C)CN1CCN(c2ccc(-c3ccc(Cl)cc3N3CCCC(n4ncc(C(=O)O)c4C(F)F)C3)cc2)CC1 (single isomer, unassigned; enantiomer 2) [Example 3, 1-{1-[4-Chloro-4′-(4-isobutylpiperazin-1-yl)[biphenyl]-2-yl]piperidin-3-yl}-5-(difluoromethyl)-1H-pyrazole-4-carboxylic acid hydrochloride (Enantiomer 2)]
4 |  | 0.77 kg·h/L | 0.63 kg·h/L |  |  |  | 41.6% | 5.00 kg·h/L | 2.08 kg·h/L | 81.8% | O=C(O)c1cnn(-c2cccc(-c3cc(Cl)ccc3-c3ccc(N4CCN(CC5CC5)CC4)cc3)n2)c1C(F)(F)F [174 (WO2012/058132), reference compound]
